Source: patent publication US7626075B2, “Growth of foreign cells in fetal animals facilitated by conditional and selective destruction of native host cells” (priority 2002, dated 2009)
Like-named read-outs stand apart in the source and are kept apart here.

Tests used:
[1] = test system: pancreatic islets; settings: injected into fetal animals; cited from earlier work
[2] = test system: pancreatic islets; settings: injected into fetal animals; cited from earlier work; remark: listed apart in the source
[3] = test system: non-transgenic FVB mice (mothers); test: Gancyclovir i.v. to pregnant non-transgenic mice, histology of the mothers; assay type: in vivo, mouse; settings: any dose (0 to 100 mg/kg i.v.)
Excerpt: These males were bred with non-transgenic FVB mice.

[4] = test system: hepatocytes of adult transgenic mice; settings: administered to adult transgenic mice; cited from earlier work
[5] = test system: untransfected Huh-7 cells; test: Gancyclovir effect on untransfected cells, propidium iodine FACS; assay type: cell-based, human; settings: gancyclovir 4, 8, 16 μM in culture media
Procedure: To assess the function of mutated thymidine kinase, Huh-7 cells were stably transfected with AlbxTK. Transfected cells were selected using 200 μg/ml Zeocin. Transfected cells as well as untransfected cells were plated in duplicate in 24-well plates at a 40 percent confluence ratio. Gancyclovir was added to the cells in the culture media at different concentrations (4 μM, 8 μM, and 16 μM. After 5 days, the cells were trypsinized, washed twice in PBS, and stained with propidium iodine for FACS analysis.

[6] = test system: fetal mice heterozygous for thymidine kinase under the albumin promoter; settings: for fetal hepatocyte injury (histology): 14 days gestation
Excerpt: The suicide gene product preferably is expressed in the appropriate tissue of the fetal host mammal at a level sufficient to be sensitive to a prodrug. The optimal dose of a prodrug depends on the prodrug, the particular suicide gene, the level of suicide gene expression in the target cells, zygosity of the fetal mammal, route of administration, and placental transport. Optimal doses can readily be determined by administering increasing doses of the prodrug to the pregnant mammal, assessing the effect on the target cells using standard pathology methods and assessing the effect on fetal survival using ultrasound and pathology techniques. The optimal dose would produce significant cell injury (>20%) with a minimum of fetal deaths (<15%).
Transgenic mice were produced with the FVB strain containing the mutated thymidine kinase transgene under the albumin promoter. […] These males were bred with non-transgenic FVB mice. At 14 days gestation, gancyclovir (0 to 100 mg/kg body weight) was injected intravenously into the pregnant mice. Tissues from the mothers and fetuses were analyzed by histology.

[7] = test system: fetal pig liver; test: Engraftment of human hepatocytes in fetal pigs after gancyclovir to the sow and human cord blood cell infusion; assay type: in vivo; settings: gancyclovir 100 mg/kg i.v. to sow
Procedure: A non-transgenic sow is bred with a boar that is hemizygous for a mutated thymidine kinase transgene under the control of an albumin promoter. Pregnancy is confirmed with ultrasound and gancyclovir (100 mg/kg, i.v.) is administered at 40 days gestation. A laparotomy is performed at 45 days. Each pig is infused with 10×10^6 human cord blood cells. The piglets are delivered at term by Caesarean section. Blood is drawn from each fetal pig and analyzed for the presence of the suicide transgene using PCR. Serum is tested for the presence of human liver proteins, including albumin, α1-antitrypsin, and serum amyloid A. Sections of liver are frozen and stained for human albumin.

[8] = test system: mice expressing thymidine kinase under the albumin promoter; test: Engraftment of human hepatocytes in transgenic mice given gancyclovir after birth; assay type: in vivo, mouse; settings: 50 mg/kg on days 1 and 3 at 14 days of age; sacrificed thirty days later
Procedure: Transgenic mice are produced that express the thymidine kinase gene under the albumin promoter. The male mice are bred with wild type females. Human hepatocytes (2×10^6 per fetal mouse) are injected at 17 days gestation, just prior to delivery. At 14 days of age, the mice are injected with gancyclovir (50 mg/kg) on days 1 and 3 or with the vehicle. Thirty days later, the mice are sacrificed.

[9] = test system: Huh-7 cells stably transfected with AlbxTK; test: Gancyclovir sensitivity of Huh-7 cells transfected with AlbxTK, propidium iodine FACS; assay type: cell-based, human
Procedure: Mouse and human liver cell lines were transfected with constructs containing delta thymidine kinase under the control of either a porcine albumin or α-fetoprotein (AFP) promoter. The mouse cell line (TIB73) is a line of mature hepatocytes in which albumin is expressed. The human cell line (Huh-7) is a line of hepatocellular carcinoma cells that express predominantly AFP. The transfected cells were tested for thymidine kinase by Western blot. To assess the function of mutated thymidine kinase, Huh-7 cells were stably transfected with AlbxTK. Transfected cells were selected using 200 μg/ml Zeocin. Transfected cells as well as untransfected cells were plated in duplicate in 24-well plates at a 40 percent confluence ratio. Gancyclovir was added to the cells in the culture media at different concentrations (4 μM, 8 μM, and 16 μM. […]

Row | Compound | effect on fetal pancreatic islets [1] | effect on maternal islets [1] | effect on fetal pancreatic islets [2] | effect on maternal islets [2] | injury to the hepatocytes of the mother [3] | hepatocyte death [4] | effect on non-transfected cells [5] | fetal survival ([6]; 25 mg/kg intravenous injection to pregnant mouse) | fetal survival ([6]; 50 mg/kg and higher, to pregnant mouse) | fetal hepatocyte injury (histology) ([6]; 50 mg/kg i.v. to pregnant mouse) | fetal hepatocyte injury (histology) ([6]; 100 mg/kg i.v. to pregnant mouse) | injury to the non-liver tissues in the fetal mice ([6]; mouse, in vivo) | placental transfer ([6]; mouse, in vivo, iv) | levels of human albumin, α1-antitrypsin inhibitor and serum amyloid A ([7]; piglets without thymidine kinase transgene) | liver engrafted with human hepatocytes ([7]; pigs with thymidine kinase suicide gene, average) | liver engrafted with human hepatocytes ([7]; pigs without suicide transgene) | engraftment with human hepatocytes versus controls not treated [8] | cell death ([9]; 8 or 16 μM gancyclovir, 5 days) | cell killing ([9]; 7 days)
1 | CN(N=O)C(=O)N[C@H]1C(O)O[C@H](CO)[C@@H](O)[C@@H]1O (mixture of isomers) [streptozotocin] | destroys the pancreatic islets | relatively little effect | destroys the pancreatic islets | relatively little effect |  |  |  |  |  |  |  |  |  |  |  |  |  |  | 
2 | Nc1nc(O)c2ncn(COC(CO)CO)c2n1 [gancyclovir] |  |  |  |  | no observable injury | Most of the hepatocytes then died off | only a minimal effect | the fetal pups survived | the fetal mice died | massive hepatic necrosis | massive hepatic necrosis | no observable injury | crosses the placental barrier | less than 1 % of levels seen in humans | 25 % of the total liver | less than 2 % of the total liver | substantially greater engraftment | significantly more cell death | entirely killed
